“Also recorded” adds a separate entry of the source. Where a SMILES comes first, the peptide text is derived from it. [ ]: non-standard residue; d: D form. Nle = CCCC[C@H](N)C(=O)O
How the values were obtained:
MetAP-2 [1] = biological target: T1, MetAP-2 (Homo sapiens, UniProt P50579); assay: Degradation experiments with Xenopus egg extracts; type: biochemical, Xenopus laevis
Protocol: Extracts from unfertilized Xenopus laevis eggs were prepared the day of the experiment, as described (See Murray, A. W., Methods Cell Biol., 3:581–605 (1991)). The MetAP-2-Protac-1 mixture (4 μl of 9 μM MetAP-2 plus 50 μMProtac-1) or MetAP-2 alone was added to […] of extract in addition to OVA (10 μM final), constitutively active IKK (IKK-EE, 0.4 μg), and okadaic acid (OA; 10 μM final). N-acetyl-leu-leu-norleucinal (LLnL, 50 μM final), epoxomicin (10 μM final), or DMSO vehicle were added to the indicated concentrations to inhibit degradation by the proteasome. The protease inhibitors chymostatin, pepstatin, and leupeptin ([…] final concentration) also were added to the extracts. Reactions were incubated for the indicated times at room temperature and terminated by adding 50 μl of SDS/PAGE loading buffer. Samples were evaluated by Western blotting as described above.
However, the key issues are whether Protac-1 can specifically activate MetAP-2 degradation, and whether targeted degradation can be achieved by endogenous ubiquitin/proteasome pathway components at typical intracellular concentrations. To address these questions, MetAP-2 was preincubated with Protac-1 to allow the complexes to form, and then added the mixture to Xenopus egg extract supplemented with IKK-EE (See Mercurio, F., Zhu, et al., Science,. 278:860–66. (1997)), OA, and OVA. The addition of IKK-EE and OA was intended to sustain phosphorylation of the IkBa peptide moiety of Protac-1, whereas OVA was added to prevent the further linkage of Protac-1 to MetAP-2. […] Moreover, addition of both IKK-EE and OA was required for optimal degradation of MetAP-2-Protac-1. Similarly, we have seen specific turnover of the MetAP-2-Protac-1complex, but not free MetAP-2, in three independent experiments. […] MetAP-2 turnover was very specific, in that maximal degradation required agents predicted to sustain phosphorylation of the LkBa peptide.

MetAP-2 [2] = biological target: T1, MetAP-2; conditions: covalent, active site His-231; cited from earlier work
T1 sequence (P50579 110-478 limits assumed): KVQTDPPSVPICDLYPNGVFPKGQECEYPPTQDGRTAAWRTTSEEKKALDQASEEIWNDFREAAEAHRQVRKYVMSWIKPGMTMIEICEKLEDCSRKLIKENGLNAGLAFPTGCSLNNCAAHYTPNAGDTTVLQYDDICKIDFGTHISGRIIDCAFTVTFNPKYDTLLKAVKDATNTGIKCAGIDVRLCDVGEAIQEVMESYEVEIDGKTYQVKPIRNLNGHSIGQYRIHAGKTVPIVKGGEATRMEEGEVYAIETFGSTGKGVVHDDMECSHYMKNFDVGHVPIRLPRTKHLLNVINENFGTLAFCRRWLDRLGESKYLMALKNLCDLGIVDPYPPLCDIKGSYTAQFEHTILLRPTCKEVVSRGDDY

MetAP-2 [3] = assay: In vitro ubiquitination of MetAP-2 by SCFβ-TRCP beads with E1, E2 (Cdc34), ubiquitin, ATP; type: biochemical; conditions: 1 hr at 30° C.; 47-kDa and 67-kDa MetAP-2 preparations; Western blot
Protocol: Pellets from cells transfected with vector, pFLAG-β-TRCP, or pFLAG-Cul-1 were vortexed for 10 sec, then incubated on ice for 15 min. After centrifugation at 13,000 rpm in an Eppendorf microfuge (Germany) for 5 min at 4° C., the supernatant was added to 20 μl of FLAG M2 beads (Sigma), which were washed with lysis buffer three times before immu-noprecipitation. Lysates were incubated with the beads on a rotator for 2 hr at 4° C., followed by one wash with buffer A (25 mM Hepes buffer, pH 7.4/0.01% Triton X-100/150 mM NaCl) and one wash with buffer B (the same buffer without the Triton X-100). […] After the addition of ligand, the beads were rotated at room temperature for 1 hr. The beads were washed once each with buffers A and B. After centrifugation at 13,000 rpm in an Eppendorf microfuge (Germany) for 1 min, half of the bead and supernatant fractions, representing bound and unbound, respectively, were evaluated by Western blotting as described above. For ubiquitination reactions, 4 μl of 18 μM MetAP-2, 4 μl of 100 μM Protac-1, 0.5 ml of 0.1 μg/μl purified mouse E1, 1 μl of 0.5 μg/μl human Cdc34 E2, and 1 μl of 25 mM ATP were added to 20 μl (packed volume) of washed FLAG-M2 beads. […] SDS/PAGE loading buffer was added to terminate reactions, which were evaluated by Western blotting as described above. […]

SCF^β-TRCP [4] = biological target: T2, SCF^β-TRCP (Homo sapiens, UniProt Q9Y297); assay: Control ubiquitination of IKK-phosphorylated glutathione S-transferase-IkBalpha by SCFβ-TRCP immunoprecipitates; type: biochemical; parameters: made in house; host or cells: 293T cells, transient transfection, anti-FLAG immunoprecipitation; conditions: anti-FLAG SCFβ-TRCP immunoprecipitates; data not shown
Excerpt: Before testing the activity of Protac-1, an approach to isolate and assay SCF^β-TRCP complexes in vitro as described (See Tan, P., et al., Mol. Cell, 3:327–33 (1999)) was first adapted. Lysates from 293T cells transfected with plasmids that encoded β-TRCP and Cul-1 proteins tagged with the FLAG epitope at the N terminus were immunoprecipitated with anti-FLAG antibody-conjugated resin. Immunoblot analysis confirmed that all components of SCF^β-TRCP were present in the anti-FLAG immunoprecipitate, including Skp 1, Hrt 1, and the transfected FLAG Cul-1 and FLAG β-TRCP (data not shown). Furthermore, control experiments confirmed that these immunoprecipitates promoted ubiquitination of IKK-phosphorylated glutathione S-transferase-LkBalpha in a manner that was inhibited by the IPP and Protac-1 (data not shown; ref. 7). To determine whether Protac-1 could recruit MetAP-2 to SCF^β-TRCP , MetAP-2 (18 μM) was first incubated with Protac-1 (100 μM) for 45 mm at room temperature. After isolation of SCF^β-TRCP complexes, the anti-FLAG beads were supplemented with the MetAP-2-Protac-l mixture and rotated at room temperature for 1 hr. The beads and supernatant then were evaluated by Western blot analysis for the presence of MetAP-2. […]
Target sequence in this assay (Q9Y297 whole entry): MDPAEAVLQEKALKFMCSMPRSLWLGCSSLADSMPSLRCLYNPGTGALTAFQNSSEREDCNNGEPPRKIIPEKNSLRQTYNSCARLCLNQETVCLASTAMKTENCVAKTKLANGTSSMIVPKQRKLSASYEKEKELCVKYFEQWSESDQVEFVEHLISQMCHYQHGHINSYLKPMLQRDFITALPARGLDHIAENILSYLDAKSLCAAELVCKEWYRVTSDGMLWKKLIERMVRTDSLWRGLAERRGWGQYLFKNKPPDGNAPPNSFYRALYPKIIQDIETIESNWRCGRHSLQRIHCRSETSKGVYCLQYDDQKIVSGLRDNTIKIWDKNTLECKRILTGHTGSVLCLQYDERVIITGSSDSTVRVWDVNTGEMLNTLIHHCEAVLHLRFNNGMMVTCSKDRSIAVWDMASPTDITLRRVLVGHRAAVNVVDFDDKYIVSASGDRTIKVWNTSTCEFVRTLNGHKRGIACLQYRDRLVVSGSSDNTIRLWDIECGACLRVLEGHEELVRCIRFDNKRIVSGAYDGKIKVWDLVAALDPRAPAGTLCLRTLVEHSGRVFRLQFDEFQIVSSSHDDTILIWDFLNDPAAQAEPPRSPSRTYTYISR
Target sequence in this assay (Q13616 whole entry partner): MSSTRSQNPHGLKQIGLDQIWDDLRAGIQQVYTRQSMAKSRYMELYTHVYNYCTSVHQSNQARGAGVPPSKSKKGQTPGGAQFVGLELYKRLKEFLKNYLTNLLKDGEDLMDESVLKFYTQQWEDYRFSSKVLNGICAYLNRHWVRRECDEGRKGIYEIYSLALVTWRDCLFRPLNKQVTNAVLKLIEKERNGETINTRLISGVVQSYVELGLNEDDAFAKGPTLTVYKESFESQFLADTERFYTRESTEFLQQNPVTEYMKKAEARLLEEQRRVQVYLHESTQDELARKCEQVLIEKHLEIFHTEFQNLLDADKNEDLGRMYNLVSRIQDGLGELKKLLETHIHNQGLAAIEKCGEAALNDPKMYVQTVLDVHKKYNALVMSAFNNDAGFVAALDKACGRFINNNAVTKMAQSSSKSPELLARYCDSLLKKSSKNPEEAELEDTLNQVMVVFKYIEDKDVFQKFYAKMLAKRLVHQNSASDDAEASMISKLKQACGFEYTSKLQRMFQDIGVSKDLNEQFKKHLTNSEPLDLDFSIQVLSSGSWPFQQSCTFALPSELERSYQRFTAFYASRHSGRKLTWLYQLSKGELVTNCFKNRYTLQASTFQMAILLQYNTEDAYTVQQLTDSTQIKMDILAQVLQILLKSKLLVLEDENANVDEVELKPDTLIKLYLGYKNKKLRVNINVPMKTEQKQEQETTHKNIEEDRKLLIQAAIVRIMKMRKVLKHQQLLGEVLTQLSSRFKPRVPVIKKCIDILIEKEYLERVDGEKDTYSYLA
Target sequence in this assay (P63208 2-163 partner limits assumed): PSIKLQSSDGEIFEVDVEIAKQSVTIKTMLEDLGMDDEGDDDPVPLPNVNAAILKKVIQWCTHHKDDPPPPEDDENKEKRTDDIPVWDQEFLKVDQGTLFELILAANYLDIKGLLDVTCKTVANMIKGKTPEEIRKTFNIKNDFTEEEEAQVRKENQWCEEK
Target sequence in this assay (P62877 whole entry partner): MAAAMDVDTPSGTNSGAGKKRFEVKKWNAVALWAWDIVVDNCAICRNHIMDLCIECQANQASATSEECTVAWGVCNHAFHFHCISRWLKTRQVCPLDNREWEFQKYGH

MetAP-2 [5] = biological target: T1, MetAP-2; assay: MetAP-2-Protac-1 coupling assay (SDS/PAGE, anti-MetAP-2 immunoblot); type: binding; conditions: MetAP-2 incubated with increasing Protac-1, or free IPP (50 μM) or free OVA (50 μM), room temperature 45 min
Protocol: MetAP-2 (9 μM) was incubated with increasing concentrations of Protac-1 (dissolved in water) at room temperature for 45 min. Reactions were supplemented with SDS loading dye, fractionated on an SDS/10% polyacryl-amide gel, transferred onto a nitrocellulose membrane, and immunoblotted with rabbit polyclonal anti-MetAP-2 antiserum (Zymed). Enhanced chemiluminescence was performed by using Amersham Pharmacia detection reagents.
The IkBalpha-OVA chimera, Protac-1 (FIG. 1B), was synthesized as described above. […] A Western blot analysis was performed with anti-MetAP-2 antiserum. […] The specificity of MetAP-2 interaction with Protac-1 in vitro was also tested.

SCF^β-TRCP [6] = biological target: T2, SCF^β-TRCP; assay: Binding assay: recruitment of MetAP-2 to SCFβ-TRCP beads; parameters: made in house; conditions: MetAP-2 (18 μM) preincubated with Protac-1 (100 μM) 45 min; beads 1 hr room temperature; vs control beads
Protocol: 293T cell pellets were lysed with 200 μl of lysis buffer (25 mMTris/Cl, pH 7.5/150 mM NaCl/0.1% Triton X-100/5 mM NaF/0.05 mM EGTA/1 mM PMSF). Pellets from cells transfected with vector, pFLAG-β-TRCP, or pFLAG-Cul-1 were vortexed for 10 sec, then incubated on ice for 15 min. After centrifugation at 13,000 rpm in an Eppendorf microfuge (Germany) for 5 min at 4° C., the supernatant was added to 20 μl of FLAG M2 beads (Sigma), which were washed with lysis buffer three times before immu-noprecipitation. […] The beads were washed once each with buffers A and B. After centrifugation at 13,000 rpm in an Eppendorf microfuge (Germany) for 1 min, half of the bead and supernatant fractions, representing bound and unbound, respectively, were evaluated by Western blotting as described above. […] SDS/PAGE loading buffer was added to terminate reactions, which were evaluated by Western blotting as described above.
Before testing the activity of Protac-1, an approach to isolate and assay SCF^β-TRCP complexes in vitro as described (See Tan, P., et al., Mol. Cell, 3:327–33 (1999)) was first adapted. […] The beads and supernatant then were evaluated by Western blot analysis for the presence of MetAP-2. […]
Target sequence in this assay (Q9Y297 whole entry): as the sequence (Q9Y297 whole entry) above
Target sequence in this assay (Q13616 whole entry partner): as the sequence (Q13616 whole entry partner) above
Target sequence in this assay (P63208 2-163 partner limits assumed): as the sequence (P63208 2-163 partner limits assumed) above
Target sequence in this assay (P62877 whole entry partner): as the sequence (P62877 whole entry partner) above
Target sequence in this assay (P50579 whole entry, further chain): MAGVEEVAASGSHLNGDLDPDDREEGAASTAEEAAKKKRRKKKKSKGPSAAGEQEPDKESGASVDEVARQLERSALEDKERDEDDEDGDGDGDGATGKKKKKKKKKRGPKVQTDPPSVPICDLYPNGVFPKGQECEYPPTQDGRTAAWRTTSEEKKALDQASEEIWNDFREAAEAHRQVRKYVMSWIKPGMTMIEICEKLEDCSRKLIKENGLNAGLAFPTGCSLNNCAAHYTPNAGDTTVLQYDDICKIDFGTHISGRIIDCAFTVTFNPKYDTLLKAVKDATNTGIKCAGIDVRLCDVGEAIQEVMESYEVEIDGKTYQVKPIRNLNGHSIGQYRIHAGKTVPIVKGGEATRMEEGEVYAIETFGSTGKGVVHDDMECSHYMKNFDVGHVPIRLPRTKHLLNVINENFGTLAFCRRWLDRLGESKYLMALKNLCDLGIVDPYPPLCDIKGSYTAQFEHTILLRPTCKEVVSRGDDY

T1 sequence (P50579 whole entry, species assumed): as the sequence (P50579 whole entry, further chain) above

CCCC[C@@H](C=O)NC(=O)[C@H](CC(C)C)NC(=O)[C@H](CC(C)C)NC(C)=O [LLnL, N-acetyl-leu-leu-norleucinal] (Ac-Leu-Leu-[Nle]-aldehyde)
effect on degradation of MetAP-2-Protac-1 (MetAP-2 [1]; LLnL 50 μM final added to extract): attenuated

CC[C@H](C)[C@H](NC(=O)[C@H]([C@@H](C)CC)N(C)C(C)=O)C(=O)N[C@H](C(=O)N[C@@H](CC(C)C)C(=O)[C@@]1(C)CO1)[C@@H](C)O [epoxomicin]
effect on degradation of MetAP-2-Protac-1 (MetAP-2 [1]; epoxomicin 10 μM final added to extract): attenuated

CO[C@@H]1[C@H](OC(=O)/C=C/C=C/C=C/C=C/C(=O)O)CC[C@]2(CO2)[C@H]1[C@@]1(C)O[C@@H]1CC=C(C)C [fumagillin]
inhibition of MetAP-2 (MetAP-2 [2]): inhibit MetAP-2 by covalently binding His-231 in the active site

IkBa peptide-suberate-Gly-ovalicinol [Protac-1]
degradation of MetAP-2-Protac-1 complex (MetAP-2 [1]; Xenopus egg extract with IKK-EE, OA and OVA, room temperature, MetAP-2 alone not degraded): mostly degraded after 30 mm; also recorded: degraded by proteasomes in Xenopus extracts | ubiquitination of MetAP-2 by SCFβ-TRCP (MetAP-2 [3]): specifically elicited ubiquitination of MetAP-2 by SCF^β-TRCP; also recorded: ubiquitinated in the presence of Protac-1 | inhibition of ubiquitination of IKK-phosphorylated GST-IkBalpha (SCF^β-TRCP [4]): inhibited | formation of MetAP-2-Protac-1 complex (upper band / doublet on anti-MetAP-2 Western blot) (MetAP-2 [5]): specifically conjugated to the OVA moiety of Protac-1 in a concentration-dependent manner | formation of MetAP-2-Protac-1 complex (upper band / doublet on anti-MetAP-2 Western blot) (MetAP-2 [5]; listed as Protac): MetAP-2 binds Protac specifically and in a concentration-dependent manner | recruitment of MetAP-2 to SCFβ-TRCP beads (SCF^β-TRCP [6]): specifically recruited MetAP-2 to SCF^β-TRCP

— patent publication US7208157B2, “Proteolysis targeting chimeric pharmaceutical” (California Institute of Technology, priority 2000, dated 2007)
